Data from publication PMC4574779, “Selective Production of 9R-Hydroxy-10E,12Z,15Z-Octadecatrienoic Acid from α-Linolenic Acid in Perilla Seed Oil Hydrolyzate by a Lipoxygenase from Nostoc Sp. SAG 25.82” (PLoS ONE, 2015).

Target: T1, 9R-LOX (9R-lipoxygenase) from Nostoc sp. SAG 25.82 (Nostoc sp. PCC 7120 = FACHB-418, UniProt Q8YK97)
T1 construct: gene all8020; 9R-lox/pET-15b, His-tagged, E. coli ER2566, His-Trap purified
T1 sequence (Q8YK97 318-773 limits assumed): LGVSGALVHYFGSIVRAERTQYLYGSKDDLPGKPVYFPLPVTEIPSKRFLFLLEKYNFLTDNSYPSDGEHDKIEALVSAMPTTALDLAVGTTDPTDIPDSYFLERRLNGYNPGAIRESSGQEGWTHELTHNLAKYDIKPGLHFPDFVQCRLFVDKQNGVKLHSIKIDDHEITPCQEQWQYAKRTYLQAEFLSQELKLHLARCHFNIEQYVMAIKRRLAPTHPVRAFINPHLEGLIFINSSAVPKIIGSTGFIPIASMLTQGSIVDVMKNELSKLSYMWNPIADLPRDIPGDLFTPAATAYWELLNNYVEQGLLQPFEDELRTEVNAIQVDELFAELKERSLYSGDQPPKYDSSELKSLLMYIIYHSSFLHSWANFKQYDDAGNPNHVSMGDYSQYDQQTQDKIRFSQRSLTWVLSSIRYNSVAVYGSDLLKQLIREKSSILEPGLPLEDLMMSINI
Assay: oxygen uptake (Clark-type electrode), nonlinear Michaelis-Menten fit
Type: biochemical
Settings: O2 co-substrate; 50 mM Tris-HCl pH 8.5; 25°C in methods (results text: 15°C, 5% acetone, 0.2% Tween 80)
Description: oxygen uptake (Clark-type electrode), nonlinear Michaelis-Menten fit on 9R-LOX (9R-lipoxygenase) from Nostoc sp. SAG 25.82

Row | Km | SMILES
1 | 54 ± 1.3 µM | CC/C=C\C/C=C\C/C=C\CCCCCCCC(=O)O [ALA, α-Linolenic acid]
2 | 404 ± 30 µM | CCCCC/C=C\C/C=C\CCCCCCCC(=O)O [LA, Linoleic acid]
3 | 54 ± 0.8 µM | CCCCC/C=C\C/C=C\C/C=C\CCCCC(=O)O [GLA, γ-Linolenic acid]
